Values quoted from earlier work as cited in patent US20250170128A1, “Obicetrapib and SGLT2 Inhibitor Combination” (NE[…] B.V. (Dutch Chamber of Commerce No. 5597 1946), priority 2021, published 2025).

Key:
[1] = clinical studies
CETP = target: T1, CETP (Homo sapiens, UniProt P11597); settings: repeated daily dosages (once a day) as low as 2.5 mg
T1 construct: CETP is a plasma protein secreted primarily by liver and adipose tissue
T1 sequence (P11597 18-493): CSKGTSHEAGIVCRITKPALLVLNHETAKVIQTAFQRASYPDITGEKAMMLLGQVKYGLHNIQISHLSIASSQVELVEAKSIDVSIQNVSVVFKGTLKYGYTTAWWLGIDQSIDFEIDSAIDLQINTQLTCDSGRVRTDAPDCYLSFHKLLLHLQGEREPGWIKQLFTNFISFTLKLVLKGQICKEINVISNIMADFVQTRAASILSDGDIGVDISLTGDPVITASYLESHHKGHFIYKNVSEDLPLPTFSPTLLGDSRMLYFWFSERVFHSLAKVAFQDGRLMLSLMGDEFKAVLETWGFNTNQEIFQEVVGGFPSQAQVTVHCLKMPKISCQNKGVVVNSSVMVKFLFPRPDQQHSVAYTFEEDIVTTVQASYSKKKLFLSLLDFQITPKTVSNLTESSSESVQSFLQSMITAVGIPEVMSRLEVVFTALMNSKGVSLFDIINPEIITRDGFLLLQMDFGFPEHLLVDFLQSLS

CCOC(=O)N1c2ccc(C(F)(F)F)cc2[C@@H](N(Cc2cc(C(F)(F)F)cc(C(F)(F)F)c2)c2ncc(OCCCC(=O)O)cn2)C[C@H]1CC [compound of Formula (I), (2R,4S)-4-{[3,5-bis(trifluoromethyl)benzyl]-[5-(3-carboxypropoxy)pyrimidin-2-yl]amino}-2-ethyl-6-trifluoromethyl-3,4-dihydro-2H-quinoline-1-carboxylic acid ethyl ester]
serious side effects [1]: does not lead to serious side effects | tolerability [1]: well tolerated | CETP inhibition (CETP): near complete CETP-inhibition
